# According to the NIST ThermoML archive (doi:10.1016/j.jct.2009.09.009):
# Values joined by “and” are separate entries in the source; they are usually repeats but may differ in a detail not shown here. Equal entries are not always repeated. ± gives the expanded uncertainty stated by the source.
# Tests used:
# [1] = Crystal, Calculated from knudsen effusion weight loss
# [2] = molar enthalpy of vaporization or sublimation; details: Crystal, Clausius-Clapeyron equation and measured Psat
smiles,measurement,setting,value
"Nc1cccc2c(N)cccc12 [1,5-diaminonaphthalene]",vapor or sublimation pressure,[1]; 367.07 K,0.000122 ± 6e-06 kPa and 0.000123 ± 6e-06 kPa and 0.000125 ± 6e-06 kPa
same,vapor or sublimation pressure,[1]; 369.1 K,0.00015 ± 8e-06 kPa and 0.000153 ± 8e-06 kPa and 0.000149 ± 7e-06 kPa
same,vapor or sublimation pressure,[1]; 371.16 K,0.000193 ± 1e-05 kPa and 0.00019 ± 1e-05 kPa and 0.000182 ± 9e-06 kPa
same,vapor or sublimation pressure,[1]; 373.08 K,0.000243 ± 1.2e-05 kPa and 0.000229 ± 1.1e-05 kPa and 0.000246 ± 1.2e-05 kPa
same,vapor or sublimation pressure,[1]; 375.1 K,0.000311 ± 1.6e-05 kPa and 0.000289 ± 1.4e-05 kPa and 0.000286 ± 1.4e-05 kPa
same,vapor or sublimation pressure,[1]; 377.16 K,0.000365 ± 1.8e-05 kPa and 0.000344 ± 1.7e-05 kPa and 0.000338 ± 1.7e-05 kPa
same,vapor or sublimation pressure,[1]; 379.09 K,0.000432 ± 2.2e-05 kPa and 0.000427 ± 2.1e-05 kPa and 0.000417 ± 2.1e-05 kPa
same,vapor or sublimation pressure,[1]; 381.1 K,0.000535 ± 2.7e-05 kPa and 0.000522 ± 2.6e-05 kPa and 0.000502 ± 2.5e-05 kPa
same,vapor or sublimation pressure,[1]; 383.16 K,0.00064 ± 3.2e-05 kPa and 0.000622 ± 3.1e-05 kPa and 0.000603 ± 3e-05 kPa
same,vapor or sublimation pressure,[1]; 385.08 K,0.000758 ± 3.8e-05 kPa and 0.000781 ± 3.9e-05 kPa and 0.000757 ± 3.8e-05 kPa
same,vapor or sublimation pressure,[1]; 387.09 K,0.000967 ± 4.8e-05 kPa and 0.00093 ± 4.7e-05 kPa and 0.000909 ± 4.6e-05 kPa
same,vapor or sublimation pressure,[1]; 389.16 K,0.001163 ± 0.00012 kPa and 0.001096 ± 0.00011 kPa and 0.001063 ± 0.00011 kPa
same,molar enthalpy,[2]; 378.11 K,28.3 ± 0.717 kcal/mol
"Nc1cccc2cccc(N)c12 [1,8-diaminonaphthalene]",vapor or sublimation pressure,[1]; 314.1 K,4.71e-05 ± 2.4e-06 kPa and 4.91e-05 ± 2.5e-06 kPa and 4.81e-05 ± 2.4e-06 kPa
same,vapor or sublimation pressure,[1]; 316.18 K,6.84e-05 ± 3.4e-06 kPa and 6.65e-05 ± 3.3e-06 kPa and 6.32e-05 ± 3.2e-06 kPa
same,vapor or sublimation pressure,[1]; 318.18 K,8.3e-05 ± 4.2e-06 kPa and 7.89e-05 ± 4e-06 kPa and 8.02e-05 ± 4e-06 kPa
same,vapor or sublimation pressure,[1]; 320.09 K,0.000102 ± 5e-06 kPa and 9.96e-05 ± 5e-06 kPa
same,vapor or sublimation pressure,[1]; 322.13 K,0.000135 ± 7e-06 kPa and 0.000127 ± 6e-06 kPa and 0.000126 ± 6e-06 kPa
same,vapor or sublimation pressure,[1]; 324.19 K,0.000165 ± 8e-06 kPa and 0.000155 ± 8e-06 kPa and 0.000159 ± 8e-06 kPa
same,vapor or sublimation pressure,[1]; 326.12 K,0.000197 ± 1e-05 kPa and 0.000204 ± 1e-05 kPa and 0.000181 ± 9e-06 kPa
same,vapor or sublimation pressure,[1]; 328.19 K,0.000261 ± 1.3e-05 kPa and 0.000251 ± 1.3e-05 kPa and 0.000244 ± 1.2e-05 kPa
same,vapor or sublimation pressure,[1]; 330.17 K,0.000315 ± 1.6e-05 kPa and 0.000298 ± 1.5e-05 kPa and 0.000296 ± 1.5e-05 kPa
same,vapor or sublimation pressure,[1]; 332.07 K,0.000351 ± 1.8e-05 kPa and 0.000379 ± 1.9e-05 kPa and 0.000364 ± 1.8e-05 kPa
same,vapor or sublimation pressure,[1]; 334.12 K,0.000485 ± 2.4e-05 kPa and 0.000472 ± 2.4e-05 kPa and 0.000466 ± 2.3e-05 kPa
same,vapor or sublimation pressure,[1]; 336.19 K,0.000583 ± 2.9e-05 kPa and 0.00056 ± 2.8e-05 kPa and 0.000585 ± 2.9e-05 kPa
same,vapor or sublimation pressure,[1]; 338.08 K,0.000707 ± 3.5e-05 kPa and 0.000739 ± 3.7e-05 kPa and 0.000734 ± 3.7e-05 kPa
same,molar enthalpy,[2]; 326.09 K,23.3 ± 0.335 kcal/mol
